*1 amine or outer side, *2 acyl side, *3 side chain or, on linkers, in order; H or OH if unused. Where a SMILES comes first, the peptide text is derived from it. Bridges are numbered along the chain shown (N, C = ends). [ ]: non-standard residue; d: D form. The star is where a group is joined. ξ: configuration not given here. Ala(piperidin-4-yl) = O=C([C@H](CC1CCN([*:3])CC1)N[*:1])[*:2]; DOTA = O=C(O)CN1CCN(CC(=O)O)CCN(CC(=O)*)CCN(CC(=O)O)CC1; Phe(4-CF3) = N[C@@H](Cc1ccc(C(F)(F)F)cc1)C(=O)O; Ala(morpholin-4-yl) = N[C@@H](CN1CCOCC1)C(=O)O; Phe(4-F) = N[C@@H](Cc1ccc(F)cc1)C(=O)O; 2Nal = N[C@@H](Cc1ccc2ccccc2c1)C(=O)O; NMetBuAla = CN[C@@H](CC(C)(C)C)C(=O)O; Gly(4-THP) = N[C@H](C(=O)O)C1CCOCC1; X4 = O=C(C(CC1CCNCC1)N[*:1])[*:2]; Chg = N[C@H](C(=O)O)C1CCCCC1; ξIle = CC[C@H](C)C(N)C(=O)O; Dap = NC[C@H](N)C(=O)O; CH2 = C([*:1])[*:2]
The molecules below were run against T1, DLL3 (Homo sapiens, UniProt Q9NYJ7) (assay: SPR KD, biotinylated human DLL3 on streptavidin chip (Table 8)). Settings: SPR KD, biotinylated human DLL3 on streptavidin sensor chip, 25° C., 1:1 binding model.
T1 sequence (Q9NYJ7 27-618): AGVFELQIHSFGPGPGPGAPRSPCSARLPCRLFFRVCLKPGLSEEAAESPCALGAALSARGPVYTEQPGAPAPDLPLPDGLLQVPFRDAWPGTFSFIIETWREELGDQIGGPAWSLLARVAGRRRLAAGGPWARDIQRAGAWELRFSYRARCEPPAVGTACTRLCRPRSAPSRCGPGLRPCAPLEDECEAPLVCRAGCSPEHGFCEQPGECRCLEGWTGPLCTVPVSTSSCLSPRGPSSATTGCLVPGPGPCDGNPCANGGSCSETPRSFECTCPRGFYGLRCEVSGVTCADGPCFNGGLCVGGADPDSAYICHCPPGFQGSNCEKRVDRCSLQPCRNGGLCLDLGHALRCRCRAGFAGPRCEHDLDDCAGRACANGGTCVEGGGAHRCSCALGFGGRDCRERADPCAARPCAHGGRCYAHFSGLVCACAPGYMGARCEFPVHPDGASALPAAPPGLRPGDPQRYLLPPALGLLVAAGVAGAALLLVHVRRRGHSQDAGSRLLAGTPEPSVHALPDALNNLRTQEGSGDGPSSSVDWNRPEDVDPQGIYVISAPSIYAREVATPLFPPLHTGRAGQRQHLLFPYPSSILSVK
Set-up: biotin (biotinylated)
Source text: Biotinylated target ligand human DLL3 was immobilized on a streptavidin sensor chip. A reference surface was set up for nonspecific binding and refractive index changes. […] Sensorgram curves were fitted with 1:1 binding model, and affinity and kinetic parameters were obtained using Biacore Insight evaluation 4.0. software.
In the case of `CC[C@H](C)[C@H](NC(=O)[C@@H](NC(=O)[C@H](Cc1c[nH]c2ccccc12)NC(C)=O)[C@@H](C)O)C(=O)N[C@H]1CSSC[C@@H](C(=O)N[C@@H](Cc2c[nH]c3ccccc23)C(=O)N2CCC[C@H]2C(=O)N[C@H](CCCCNC(=O)CN2CCN(CC(=O)O)CCN(CC(=O)O)CCN(CC(=O)O)CC2)C(N)=O)NC(=O)[C@H](CC(=O)O)NC(=O)[C@H](CCCCNC(=O)CN2CCN(CC(=O)O)CCN(CC(=O)O)CCN(CC(=O)O)CC2)NC(=O)[C@H](Cc2ccc3ccccc3c2)NC(=O)[C@H](CC(N)=O)NC(=O)[C@H](CC(N)=O)NC1=O` [compound 253, Ac-W-T-I-C(3)-N-N-(2Nal)-Lys(DOTA)-D-C(3)-W-P-[D-Lys(DOTA)]-NH2] (Ac-WTICNN[2Nal]K(DOTA)DCWP[dK](DOTA)-NH2; disulfide 4-10), the Kd is reported as under 1 nM.
`CC(=O)N[C@@H](Cc1c[nH]c2ccccc12)C(=O)N[C@H](C(=O)N[C@H](C(=O)N[C@H]1CSSC[C@@H](C(=O)N[C@@H](Cc2c[nH]c3ccccc23)C(=O)N2CCC[C@H]2C(N)=O)NC(=O)[C@H](CC(=O)O)NC(=O)[C@H](CCCCNC(=O)CN2CCN(CC(=O)O)CCN(CC(=O)O)CCN(CC(=O)O)CC2)NC(=O)[C@H](Cc2ccc3ccccc3c2)NC(=O)[C@H](CC(N)=O)NC(=O)[C@H](CN2CCOCC2)NC1=O)C1CCCCC1)[C@@H](C)O` [compound 325, Ac-W-T-(Chg)-C(3)-[3-(1-morpholinyl)-Ala]-N-(2Nal)-Lys(DOTA)-D-C(3)-W-P-CONH2] (Ac-WT[Chg]C[Ala(morpholin-4-yl)]N[2Nal]K(DOTA)DCWP-NH2; disulfide 4-10) showed a Kd of under 1 nM.

Same assay, conditions: biotinylated human DLL3 on streptavidin sensor chip, 25° C., 1:1 binding model; read-out: SPR KD
`CC[C@H](C)[C@H](NC(=O)[C@@H](NC(=O)[C@H](Cc1c[nH]c2ccccc12)NC(C)=O)[C@@H](C)O)C(=O)N[C@H]1CC(=O)NC[C@@H](C(=O)N[C@@H](Cc2c[nH]c3ccccc23)C(=O)N2CCC[C@H]2C(N)=O)NC(=O)[C@H](CC(=O)O)NC(=O)[C@H](Cc2c[nH]cn2)NC(=O)[C@H](Cc2c[nH]c3ccccc23)NC(=O)[C@H](CC(N)=O)NC(=O)[C@H](CC(N)=O)NC1=O` [compound 120, Ac-W-T-I-(L-Asp)*-N-N-W-H-D-(L-Dap)*-W-P-CONH2 (* denotes lactam between side chains between L-Asp and L-Dap)] (Ac-WTIDNNWHD[Dap]WP-NH2; lactam 4-10) showed a Kd of 100 to 300 nM.
Work on `CC(=O)N[C@@H](Cc1c[nH]c2ccccc12)C(=O)N[C@H](C(=O)N(C)[C@@H](CC(C)(C)C)C(=O)N[C@H]1CSCSC[C@@H](C(=O)N[C@@H](Cc2c[nH]c3ccccc23)C(=O)N2CCC[C@H]2C(N)=O)NC(=O)[C@H](CC(=O)O)NC(=O)[C@H](CCCCNC(=O)CN2CCN(CC(=O)O)CCN(CC(=O)O)CCN(CC(=O)O)CC2)NC(=O)[C@H](Cc2ccc3ccccc3c2)NC(=O)[C@H](CC(N)=O)NC(=O)[C@H](CC2CCNCC2)NC1=O)[C@@H](C)O` [compound 153] (Ac-WT[NMetBuAla]C[Ala(piperidin-4-yl)]N[2Nal]K(DOTA)DCWP-NH2; linker 4-10 via CH2) yielded a Kd of under 1 nM.
`CC[C@H](C)[C@H](NC(=O)[C@@H](NC(=O)[C@H](Cc1ccc(F)cc1)NC(C)=O)[C@@H](C)O)C(=O)N[C@H]1CSSC[C@@H](C(=O)N[C@@H](Cc2c[nH]c3ccccc23)C(=O)N2CCC[C@H]2C(N)=O)NC(=O)[C@H](CC(=O)O)NC(=O)[C@H](Cc2cnc[nH]2)NC(=O)[C@H](Cc2c[nH]c3ccccc23)NC(=O)[C@H](CC(N)=O)NC(=O)[C@H](CC(N)=O)NC1=O` [compound 214, Ac-(4Fluoro-F)-T-I-C(3)-N-N-W-H-D-C(3)-W-P-CONH2] (Ac-[Phe(4-F)]TICNNWHDCWP-NH2; disulfide 4-10) was tested, and the Kd was 100 to 300 nM.
Molecule `CC[C@H](C)[C@H](NC(=O)[C@@H](NC(=O)[C@H](Cc1ccc(C(F)(F)F)cc1)NC(C)=O)[C@@H](C)O)C(=O)N[C@H]1CSSC[C@@H](C(=O)N[C@@H](Cc2c[nH]c3ccccc23)C(=O)N2CCC[C@H]2C(N)=O)NC(=O)[C@H](CC(=O)O)NC(=O)[C@H](Cc2cnc[nH]2)NC(=O)[C@H](Cc2c[nH]c3ccccc23)NC(=O)[C@H](CC(N)=O)NC(=O)[C@H](CC(N)=O)NC1=O` [compound 215, Ac-(4CF3-F)-T-I-C(3)-N-N-W-H-D-C(3)-W-P-CONH2] (Ac-[Phe(4-CF3)]TICNNWHDCWP-NH2; disulfide 4-10) has a Kd of 10 to 100 nM.
`CC[C@H](C)[C@H](NC(=O)[C@@H](NC(=O)[C@H](Cc1c[nH]c2ccccc12)NC(C)=O)[C@@H](C)O)C(=O)N[C@H]1CSSC[C@@H](C(=O)N[C@@H](Cc2c[nH]c3ccccc23)C(=O)N2CCC[C@H]2C(=O)N[C@H](CCCCNC(=O)CN2CCN(CC(=O)O)CCN(CC(=O)O)CCN(CC(=O)O)CC2)C(N)=O)NC(=O)[C@H](CC(=O)O)NC(=O)[C@H](Cc2cnc[nH]2)NC(=O)[C@H](Cc2ccc3ccccc3c2)NC(=O)[C@H](CC(N)=O)NC(=O)[C@H](CCCCNC(=O)CN2CCN(CC(=O)O)CCN(CC(=O)O)CCN(CC(=O)O)CC2)NC1=O` [compound 247] (Ac-WTICK(DOTA)N[2Nal]HDCWP[dK](DOTA)-NH2; disulfide 4-10) was tested, and the Kd was under 1 nM.
With `CC[C@H](C)C(NC(=O)[C@@H](NC(=O)[C@H](Cc1c[nH]c2ccccc12)NC(C)=O)[C@@H](C)O)C(=O)N[C@H]1CSSC[C@@H](C(=O)N[C@@H](Cc2c[nH]c3ccccc23)C(=O)N2CCC[C@H]2C(=O)N[C@H](CCCCNC(=O)CN2CCN(CC(=O)O)CCN(CC(=O)O)CCN(CC(=O)O)CC2)C(N)=O)NC(=O)[C@H](CC(=O)O)NC(=O)[C@H](Cc2cnc[nH]2)NC(=O)[C@H](Cc2ccc3ccccc3c2)NC(=O)[C@H](CCCCNC(=O)CN2CCN(CC(=O)O)CCN(CC(=O)O)CCN(CC(=O)O)CC2)NC(=O)[C@H](CC(N)=O)NC1=O` (stereo partly drawn) [compound 248, Ac-W-T-I-C(3)-N-Lys(DOTA)-(2Nal)-H-D-C(3)-W-P-[D-Lys(DOTA)]-NH2] (Ac-WT[ξIle]CNK(DOTA)[2Nal]HDCWP[dK](DOTA)-NH2; disulfide 4-10) the Kd was under 1 nM.
In the case of `CC[C@H](C)[C@H](NC(=O)[C@@H](NC(=O)[C@H](Cc1c[nH]c2ccccc12)NC(C)=O)[C@@H](C)O)C(=O)N[C@H]1CSSC[C@@H](C(=O)N[C@@H](Cc2c[nH]c3ccccc23)C(=O)N2CCC[C@H]2C(N)=O)NC(=O)[C@H](CC(=O)O)NC(=O)[C@H](Cc2c[nH]cn2)NC(=O)[C@H](Cc2ccc3ccccc3c2)NC(=O)[C@H](CCCCNC(=O)CN2CCN(CC(=O)O)CCN(CC(=O)O)CCN(CC(=O)O)CC2)NC(=O)[C@H](CC(N)=O)NC1=O` [compound 250, Ac-W-T-I-C(3)-N-Lys(DOTA)-(2Nal)-H-D-C(3)-W-P-CONH2] (Ac-WTICNK(DOTA)[2Nal]HDCWP-NH2; disulfide 4-10), the Kd is reported as 1 to 10 nM.
With `CC[C@H](C)[C@H](NC(=O)[C@@H](NC(=O)[C@H](Cc1c[nH]c2ccccc12)NC(C)=O)[C@@H](C)O)C(=O)N[C@H]1CSSC[C@@H](C(=O)N[C@@H](Cc2c[nH]c3ccccc23)C(=O)N2CCC[C@H]2C(N)=O)NC(=O)[C@H](CC(=O)O)NC(=O)[C@H](CCCCNC(=O)CN2CCN(CC(=O)O)CCN(CC(=O)O)CCN(CC(=O)O)CC2)NC(=O)[C@H](Cc2ccc3ccccc3c2)NC(=O)[C@H](CC(N)=O)NC(=O)[C@H](CC(N)=O)NC1=O` [compound 254] (Ac-WTICNN[2Nal]K(DOTA)DCWP-NH2; disulfide 4-10) the Kd was under 1 nM.
`CC(=O)N[C@@H](Cc1c[nH]c2ccccc12)C(=O)N[C@H](C(=O)N[C@H](C(=O)N[C@H]1CSSC[C@@H](C(=O)N[C@@H](Cc2c[nH]c3ccccc23)C(=O)N2CCC[C@H]2C(N)=O)NC(=O)[C@H](CC(=O)O)NC(=O)[C@H](CCCCNC(=O)CN2CCN(CC(=O)O)CCN(CC(=O)O)CCN(CC(=O)O)CC2)NC(=O)[C@H](Cc2ccc3ccccc3c2)NC(=O)[C@H](CC(N)=O)NC(=O)C(CN2CCOCC2)NC1=O)C(C)(C)C)[C@@H](C)O` (stereo partly drawn) [compound 309, Ac-W-T-(Tbg)-C(3)-[3-(1-morpholinyl)-Ala]-N-(2Nal)-Lys(DOTA)-D-C(3)-W-P-CONH2] gave a Kd of under 1 nM.
With `CC(=O)N[C@@H](Cc1c[nH]c2ccccc12)C(=O)N[C@H](C(=O)N[C@H](C(=O)N[C@H]1CSSC[C@@H](C(=O)N[C@@H](Cc2c[nH]c3ccccc23)C(=O)N2CCC[C@H]2C(N)=O)NC(=O)[C@H](CC(=O)O)NC(=O)[C@H](CCCCNC(=O)CN2CCN(CC(=O)O)CCN(CC(=O)O)CCN(CC(=O)O)CC2)NC(=O)[C@H](Cc2ccc3ccccc3c2)NC(=O)[C@H](CC(N)=O)NC(=O)C(CC2CCNCC2)NC1=O)C1CCOCC1)[C@@H](C)O` (stereo partly drawn) [compound 319, Ac-W-T-(THPG)-C(3)-[3-(4-piperidinyl)-Ala]-N-(2Nal)-Lys(DOTA)-D-C(3)-W-P-CONH2] (Ac-WT[Gly(4-THP)]C[X4]N[2Nal]K(DOTA)DCWP-NH2; disulfide 4-10) the Kd was under 1 nM.
`CC(=O)N[C@@H](Cc1c[nH]c2ccccc12)C(=O)N[C@H](C(=O)N[C@H](C(=O)N[C@H]1CSSC[C@@H](C(=O)N[C@@H](Cc2c[nH]c3ccccc23)C(=O)N2CCC[C@H]2C(N)=O)NC(=O)[C@H](C)NC(=O)[C@@H](CCCCNC(=O)CN2CCN(CC(=O)O)CCN(CC(=O)O)CCN(CC(=O)O)CC2)NC(=O)[C@H](Cc2ccc3ccccc3c2)NC(=O)[C@H](CC(N)=O)NC(=O)[C@H](CC2CCNCC2)NC1=O)C1CCOCC1)[C@@H](C)O` [compound 327, Ac-W-T-(THPG)-C(3)-[3-(4-piperidinyl)-Ala]-N-(2Nal)-Lys(DOTA)-(Ala)-C(3)-W-P-CONH2] (Ac-WT[Gly(4-THP)]C[Ala(piperidin-4-yl)]N[2Nal][dK](DOTA)ACWP-NH2; disulfide 4-10) showed a Kd of under 1 nM.
